Read-outs that look alike come from different tables or passages of the source.
How the values were obtained:
Format in all cases: cell-based
rat mGlu5 = rat mGlu5 (Rattus norvegicus (Rat), UniProt P31424); experiment: mGlu5 Ca2+ flux assay; conditions: for activity at 30 µM: read-out: rat mGlu5 Glu max (%)
Method: (§1) HEK 293A cells stably expressing rat mGlu5 were plated in black-walled, clear-bottomed, poly-D-lysine coated 384-well plates in 20 μL of assay medium (DMEM containing 10% dialyzed FBS, 20 mM HEPES, 100 units/mL penicillin/streptomycin plus 250 ng/mL Fungizone, and 1 mM sodium pyruvate) at a density of 20K cells/well. The cells were grown overnight at 37° C. in the presence of 5% CO2. The next day, medium was removed and the cells incubated with 20 μL of […] Fluo-4, AM prepared as a 2.3 mM stock in DMSO and mixed in a 1:1 ratio with 10% (w/v) pluronic acid F-127 and diluted in assay buffer (Hank's balanced salt solution, 20 mM HEPES, and 2.5 mM probenecid) for 45 minutes at 37° C. Dye was removed, 20 μL of assay buffer was added, and the plate was incubated for 5 minutes at room temperature.
(§2) Ca^2+ flux was measured using the Functional Drug Screening System (FDSS7000, Hamamatsu, Japan). After establishment of a fluorescence baseline for about 3 seconds, the compounds of the present invention were added to the cells, and the response in cells was measured. 2.3 minutes later an EC20 concentration of the mGlu5 receptor agonist glutamate was added to the cells, and the response of the cells was measured for 1.9 minutes; an EC80 concentration of agonist was added and readings taken for an additional 1.7 minutes. All test compounds were dissolved and diluted to a concentration of 10 mM in 100% DMSO. Compounds were then serially diluted 1:3 in DMSO into 10 point concentration response curves, transferred to daughter plates, and further diluted into assay buffer to a 2× stock. Calcium fluorescence measures were recorded as fold over basal fluorescence; raw data was then normalized to the maximal response to glutamate.
(§3) The raw data file containing all time points was used as the data source in the analysis template. This was saved by the FDSS as a tab-delimited text file. Data were normalized using a static ratio function (F/F0) for each measurement of the total 360 values per well divided by each well's initial value. Data were then reduced to peak amplitudes (Max−Initial Min) using a time range that starts approximately 3 seconds prior to the glutamate EC20/EC80 addition and continues for approximately 90-120 seconds. This is sufficient time to capture the peak amplitude of the cellular calcium response. Individual amplitudes were expressed as % EMax by multiplying each amplitude by 100 and then dividing the product by the mean of the amplitudes derived from the glutamate ECMax-treated wells. EC50 values for test compounds were generated by fitting the normalized values versus the log of the test compound concentration (in mol/L) using a 4 parameter logistic equation where none of the parameters were fixed. Each of the three values collected at each concentration of test compound were weighted evenly.

rat mGlu2 = rat mGlu2 (Rattus norvegicus (Rat), UniProt P31421); experiment: mGlu2 Ca2+ flux assay; conditions: NAM, glutamate EC80; >30,000 = no measurable activity
Method: as §1, with “Gα15 HEK293” for “HEK 293A”, “mGlu2” for “mGlu5”, “HEPES,” for “HEPES, 100 units/mL penicillin/streptomycin plus 250 ng/mL Fungizone,”, “12K” for “20K”
as §2, with “mGlu2” for “mGlu5”
as §3, with “EC80” for “EC20/EC80”, “90” for “90-120”, “ECMax” for “EMax”, “IC50” for “EC50”

rat mGlu3 = rat mGlu3 (Rattus norvegicus (Rat), UniProt P31422); experiment: mGlu3 Ca2+ flux assay; conditions: for IC50: NAM, glutamate EC80, >10,000 = decrease without plateau, >30,000 = no measurable activity; for remaining activity at 30 µM: read-out: rat mGlu3 Glu max (%)
Method: Gα15/TREx cells stably expressing rat mGlu3 were plated in black-walled, clear-bottomed, poly-D-lysine coated 384-well plates in 20 μL of assay medium (DMEM containing 10% dialyzed FBS, 20 mM HEPES, 25 ng/mL tetracycline, 100 units/mL penicillin/streptomycin plus 250 ng/mL Fungizone, and 1 mM sodium pyruvate) at a density of 15K cells/well. The cells were grown overnight at 37° C. in the presence of 5% CO2. […] Dye was removed, 20 μL of assay buffer was added, and the plate was incubated for 10 minutes at room temperature.
as §2, with “mGlu3” for “mGlu5”
as §3, with “EC80” for “EC20/EC80”, “90” for “90-120”

[1] = PAM, response at 30 μM test compound as percentage of maximal response to glutamate
[2] = response at 30 μM test compound as percentage of maximal response to glutamate
[3] = PAM, glutamate EC20, >10,000 = no plateau, >30,000 = no measurable activity, read-out: rat mGlu5 EC50 or IC50

Sequence of rat mGlu3 (P31422 23-879): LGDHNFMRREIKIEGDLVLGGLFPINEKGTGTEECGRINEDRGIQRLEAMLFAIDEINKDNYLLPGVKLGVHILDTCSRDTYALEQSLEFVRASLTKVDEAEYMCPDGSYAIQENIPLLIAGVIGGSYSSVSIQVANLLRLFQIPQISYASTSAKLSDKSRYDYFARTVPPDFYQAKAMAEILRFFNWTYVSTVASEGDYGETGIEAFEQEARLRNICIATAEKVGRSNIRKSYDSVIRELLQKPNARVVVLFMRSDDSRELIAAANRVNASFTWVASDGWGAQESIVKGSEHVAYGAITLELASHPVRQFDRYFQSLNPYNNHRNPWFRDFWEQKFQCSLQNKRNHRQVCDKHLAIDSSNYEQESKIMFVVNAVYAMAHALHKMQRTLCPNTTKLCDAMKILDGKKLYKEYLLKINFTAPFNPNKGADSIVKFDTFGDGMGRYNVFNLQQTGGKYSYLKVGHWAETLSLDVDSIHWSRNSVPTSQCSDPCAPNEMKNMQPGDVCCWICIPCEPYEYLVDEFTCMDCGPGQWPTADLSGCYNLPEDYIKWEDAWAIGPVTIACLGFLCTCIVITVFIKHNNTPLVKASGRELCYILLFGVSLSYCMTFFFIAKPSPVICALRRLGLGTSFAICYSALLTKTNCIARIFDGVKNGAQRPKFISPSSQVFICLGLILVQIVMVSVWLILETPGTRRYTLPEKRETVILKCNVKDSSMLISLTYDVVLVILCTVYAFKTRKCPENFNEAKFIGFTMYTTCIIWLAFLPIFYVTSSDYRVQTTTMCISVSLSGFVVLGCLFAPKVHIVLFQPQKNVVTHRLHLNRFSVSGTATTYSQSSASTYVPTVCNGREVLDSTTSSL
Sequence of rat mGlu2 (P31421 19-872): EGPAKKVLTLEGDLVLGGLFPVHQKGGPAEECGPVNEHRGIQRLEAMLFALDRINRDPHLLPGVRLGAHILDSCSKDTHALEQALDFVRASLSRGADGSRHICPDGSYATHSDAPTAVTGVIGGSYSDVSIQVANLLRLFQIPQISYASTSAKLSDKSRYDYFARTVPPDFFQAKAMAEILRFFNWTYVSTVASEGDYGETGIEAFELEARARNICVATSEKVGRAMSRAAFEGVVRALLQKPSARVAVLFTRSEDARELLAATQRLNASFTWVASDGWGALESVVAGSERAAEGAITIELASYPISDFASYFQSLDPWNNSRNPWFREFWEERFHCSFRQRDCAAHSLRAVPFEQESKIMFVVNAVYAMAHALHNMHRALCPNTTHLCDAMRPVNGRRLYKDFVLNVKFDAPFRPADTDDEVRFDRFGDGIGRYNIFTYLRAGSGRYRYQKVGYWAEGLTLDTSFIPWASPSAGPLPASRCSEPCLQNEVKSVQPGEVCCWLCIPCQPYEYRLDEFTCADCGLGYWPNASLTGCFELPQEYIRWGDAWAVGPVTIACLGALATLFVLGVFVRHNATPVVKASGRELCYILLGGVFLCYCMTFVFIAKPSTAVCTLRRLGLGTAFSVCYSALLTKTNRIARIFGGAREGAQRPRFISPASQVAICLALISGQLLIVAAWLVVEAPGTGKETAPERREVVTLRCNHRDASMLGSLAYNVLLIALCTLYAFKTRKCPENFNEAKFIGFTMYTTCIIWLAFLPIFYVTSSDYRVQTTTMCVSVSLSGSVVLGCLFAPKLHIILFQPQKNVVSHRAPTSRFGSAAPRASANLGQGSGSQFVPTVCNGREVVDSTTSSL
Sequence of rat mGlu5 (P31424 21-1203): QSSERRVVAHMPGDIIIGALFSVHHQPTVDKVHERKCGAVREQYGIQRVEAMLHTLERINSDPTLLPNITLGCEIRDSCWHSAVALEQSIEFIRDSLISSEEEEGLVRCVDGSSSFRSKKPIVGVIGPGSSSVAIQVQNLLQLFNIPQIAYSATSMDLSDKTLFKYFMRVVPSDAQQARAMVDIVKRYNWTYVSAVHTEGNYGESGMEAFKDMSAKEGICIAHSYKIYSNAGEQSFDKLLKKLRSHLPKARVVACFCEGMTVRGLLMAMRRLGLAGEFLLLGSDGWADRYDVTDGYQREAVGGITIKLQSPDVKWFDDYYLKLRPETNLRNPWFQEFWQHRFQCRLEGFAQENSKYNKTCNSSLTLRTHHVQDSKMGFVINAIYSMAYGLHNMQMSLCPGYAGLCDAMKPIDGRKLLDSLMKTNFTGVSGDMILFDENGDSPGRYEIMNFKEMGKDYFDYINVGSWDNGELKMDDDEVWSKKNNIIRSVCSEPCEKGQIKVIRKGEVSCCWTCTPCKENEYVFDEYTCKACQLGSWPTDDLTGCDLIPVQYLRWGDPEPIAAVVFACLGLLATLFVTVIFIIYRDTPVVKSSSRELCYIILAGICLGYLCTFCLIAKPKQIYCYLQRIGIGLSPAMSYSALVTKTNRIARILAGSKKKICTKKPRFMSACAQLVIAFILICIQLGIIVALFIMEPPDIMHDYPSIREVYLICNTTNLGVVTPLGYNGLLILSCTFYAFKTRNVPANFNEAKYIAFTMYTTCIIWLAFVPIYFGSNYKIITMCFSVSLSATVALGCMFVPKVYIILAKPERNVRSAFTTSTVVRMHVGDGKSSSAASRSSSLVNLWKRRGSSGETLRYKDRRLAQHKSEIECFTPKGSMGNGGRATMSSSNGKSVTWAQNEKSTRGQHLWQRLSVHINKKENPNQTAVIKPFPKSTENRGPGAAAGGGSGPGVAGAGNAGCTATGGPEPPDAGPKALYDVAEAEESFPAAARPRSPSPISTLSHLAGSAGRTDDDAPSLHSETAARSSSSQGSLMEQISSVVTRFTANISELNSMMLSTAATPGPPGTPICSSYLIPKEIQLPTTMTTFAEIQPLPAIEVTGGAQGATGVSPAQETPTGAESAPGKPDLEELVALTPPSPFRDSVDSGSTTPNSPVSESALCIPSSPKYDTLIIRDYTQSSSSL

| SMILES | EC50 (rat mGlu5) | activity at 30 µM (rat mGlu5; [1]) | IC50 (rat mGlu2) | IC50 (rat mGlu3) | remaining activity at 30 µM (rat mGlu3; [2]) | EC50 (rat mGlu5; [3]) | activity at 30 µM (rat mGlu5) | remaining activity at 30 µM (rat mGlu3) |
| --- | --- | --- | --- | --- | --- | --- | --- | --- |
| O=c1cc(OCCOc2ccccc2)ccn1-c1ccc(F)c(F)c1 [Compound 20, 1-(3,4-difluorophenyl)-4-(2-phenoxyethoxy)pyridin-2(1H)-one] | 344 nM | 91% | > 30000 nM | 323 nM | 1.63% | – | – | – |
| N#Cc1cc(F)cc(-n2ccc(OCCOc3ccccc3)cc2=O)c1 [Compound 23, 3-fluoro-5-(2-oxo-4-(2-phenoxyethoxy)pyridin-1(2H)-yl)benzonitrile] | – | 26.8% | > 30000 nM | 522 nM | 3.44% | 1310 nM | – | – |
| O=c1cc(OCCOc2ccccc2)ccn1-c1cccc(F)c1 [Compound 19, 1-(3-fluorophenyl)-4-(2-phenoxyethoxy)pyridin-2(1H)-one] | 1970 nM | 88% | > 30000 nM | 434 nM | 2.01% | – | – | – |
| O=c1cc(OCCOc2cc(Cl)ccn2)ccn1-c1ccc(F)cc1 [Compound 49, 4-(2-((4-Chloropyridin-2-yl)oxy)ethoxy)-1-(4-fluorophenyl)pyridin-2(1H)-one] | – | 82.3% | > 30000 nM | 563 nM | 0.73% | 8800 nM | – | – |
| O=c1cc(OCCOc2ccccc2)ccn1-c1cc(F)cc(F)c1 [Compound 21, 1-(3,5-difluorophenyl)-4-(2-phenoxyethoxy)pyridin-2(1H)-one] | – | – | – | 799 nM | – | 818 nM | 28.3% | 7.25% |
| N#Cc1cccnc1OCCOc1ccn(-c2ccc(F)cc2)c(=O)c1 [Compound 56, 2-(2-((1-(4-fluorophenyl)-2-oxo-1,2-dihydropyridin-4-yl)oxy)ethoxy)nicotinonitrile] | – | – | > 30000 nM | > 10000 nM | 18% | – | – | – |
| O=c1cc(OCCOc2cccc(Cl)c2)ccn1-c1ccc(F)cc1 [Compound 38, 4-(2-(3-chlorophenoxy)ethoxy)-1-(4-fluorophenyl)pyridin-2(1H)-one] | – | – | > 30000 nM | 980 nM | 0.85% | – | – | – |
| O=c1cc(OCCOc2cc(F)ccc2F)ccn1-c1ccc(F)cc1 [Compound 35, 4-(2-(2,5-difluorophenoxy)ethoxy)-1-(4-fluorophenyl)pyridin-2(1H)-one] | – | – | > 30000 nM | 1460 nM | 2.27% | – | – | – |
| O=c1cc(OCCOc2ccc(F)cn2)ccn1-c1ccc(F)cc1 [Compound 52, 1-(4-fluorophenyl)-4-(2-((5-fluoropyridin-2-yl)oxy)ethoxy)pyridin-2(1H)-one] | – | – | > 30000 nM | 1060 nM | 0.26% | – | – | – |
| O=c1cc(OCCOc2ccccc2)ccn1-c1ccccn1 [Compound 11, 4-(2-phenoxyethoxy)-2H-[1,2′-bipyridin]-2-one] | – | – | > 30000 nM | > 30000 nM | – | – | – | – |
| O=c1nc(OCCOc2ccccc2)ccn1-c1ccc(F)cn1 [Compound 16, 1-(5-fluoropyridin-2-yl)-4-(2-phenoxyethoxy)pyrimidin-2(1H)-one] | – | – | > 30000 nM | > 10000 nM | 23.9% | – | – | – |
| O=c1cc(OCCOc2cncc(Cl)c2)ccn1-c1ccc(F)cc1 [Compound 46, 4-(2-((5-chloropyridin-3-yl)oxy)ethoxy)-1-(4-fluorophenyl)pyridin-2(1H)-one] | – | – | > 30000 nM | 2790 nM | 0.41% | – | – | – |
| O=c1cc(OCCOc2ncccc2F)ccn1-c1ccc(F)cc1 [Compound 51, 1-(4-fluorophenyl)-4-(2-((3-fluoropyridin-2-yl)oxy)ethoxy)pyridin-2(1H)-one] | – | – | > 30000 nM | 1280 nM | 0.2% | – | – | – |
| N#Cc1ccc(OCCOc2ccn(-c3ccc(F)cc3)c(=O)c2)cc1 [Compound 42, 4-(2-((1-(4-fluorophenyl)-2-oxo-1,2-dihydropyridin-4-yl)oxy)ethoxy)benzonitrile] | – | – | > 30000 nM | 1130 nM | 0.74% | – | – | – |
| O=c1cc(OCCOc2cccnc2)ccn1-c1ccc(F)cc1 [Compound 44, 1-(4-fluorophenyl)-4-(2-(pyridin-3-yloxy)ethoxy)pyridin-2(1H)-one] | – | – | > 30000 nM | 10000 nM | 1.83% | – | – | – |
| O=c1cc(OCCSc2ccccc2)ccn1-c1ccc(F)cc1 [Compound 3, 1-(4-fluorophenyl)-4-(2-(phenylthio)ethoxy)pyridin-2(1H)-one] | – | – | > 30000 nM | 3890 nM | 1.42% | – | – | – |
